Measured values: patent US20170190671A1, “BIS(ARYL)CATECHOL DERIVATIVES AS HERBICIDES” (E I DU PONT DE NEMOURS AND COMPANY, priority 2014, published 2017)

Tests used:
Experiment in all cases: Test C postemergence
Type in all cases: in vivo
[1] = test system: chickweed (common chickweed, Stellaria media); details: Stellaria media, post-emergence, Postemergence, scale 0 to 100, read-out: Plant response rating, Chickweed
Source text: (§1) Seeds of plant species selected from blackgrass (Alopecurus myosuroides), Italian ryegrass (Lolium multiflorum), winter wheat (Triticum aestivum), galium (catchweed bedstraw, Galium aparine), corn (Zea mays), large (Lg) crabgrass (Digitaria sanguinalis), giant foxtail (Setaria faberii), johnsongrass (Sorghum halepense), lambsquarters (Chenopodium album), morningglory (Ipomoea coccinea), yellow nutsedge (Cyperus esculentus), pigweed (Amaranthus retroflexus), ragweed (common ragweed, Ambrosia elatior), soybean (Glycine max), barnyardgrass (Echinochloa crus-galli), oilseed rape (Brassica napus), waterhemp (common waterhemp, Amaranthus rudis), and velvetleaf (Abutilon theophrasti) were planted into a blend of loam soil and sand and treated preemergence with test chemicals formulated in a non-phytotoxic solvent mixture which included a surfactant.
(§2) At the same time, plants selected from these crop and weed species and also chickweed (common chickweed, Stellaria media), kochia (Kochia scoparia), and wild oat (Avena fatua), were planted in pots containing Redi-Earth® planting medium (Scotts Company, 14111 Scottslawn Road, Marysville, Ohio 43041) comprising spaghnum peat moss, vermiculite, wetting agent and starter nutrients and treated with postemergence applications of test chemicals formulated in the same manner. Plants ranged in height from 2 to 18 cm (1- to 4-leaf stage) for postemergence treatments. Treated plants and controls were maintained in a greenhouse for 13 to 15 days, after which time all species were compared to controls and visually evaluated. Plant response ratings, summarized in Table C, are based on a scale of 0 to 100 where 0 is no effect and 100 is complete control. A dash (-) response means no test result.

[2] = test system: galium (catchweed bedstraw, Galium aparine); details: Galium, post-emergence, 336 h, Postemergence, scale 0 to 100, read-out: Plant response rating, Galium
Source text: as §1, §2

[3] = test system: wild oat (Avena fatua); details: Avena fatua, post-emergence, Postemergence, scale 0 to 100, read-out: Plant response rating, Oat, Wild
Source text: as §1, §2

[4] = test system: kochia (Kochia scoparia); details: Bassia scoparia, post-emergence, Postemergence, scale 0 to 100, read-out: Plant response rating, Kochia
Source text: as §1, §2

[5] = test system: pigweed (Amaranthus retroflexus); details: Amaranthus retroflexus, post-emergence, 336 h, Postemergence, scale 0 to 100, read-out: Plant response rating, Pigweed
Source text: as §1, §2

[6] = test system: waterhemp (common waterhemp, Amaranthus rudis); details: Amaranthus tuberculatus, post-emergence, Postemergence, scale 0 to 100, read-out: Plant response rating, Waterhemp
Source text: as §1, §2

[7] = test system: yellow nutsedge (Cyperus esculentus); details: Cyperus, post-emergence, 336 h, Postemergence, scale 0 to 100, read-out: Plant response rating, Nutsedge, Yellow
Source text: as §1, §2

For `Fc1cccc(Oc2ncc(Cl)cn2)c1Oc1ccc(Cl)nc1` [Compound 20], the pest or weed control at 31 g/ha ([1]; 31 g ai/ha) was 35%, the pest or weed control at 62 g/ha ([1]; 62 g ai/ha) was 40% and the pest or weed control at 125 g/ha ([1]; 125 g ai/ha) was 45%. For the same molecule, the pest or weed control at 250 g/ha ([1]; 250 g ai/ha) was 80%, the pest or weed control at 31 g/ha ([2]; 31 g ai/ha) was 50% and the pest or weed control at 62 g/ha ([2]; 62 g ai/ha) was 50%. It also gave a pest or weed control at 125 g/ha ([2]; 125 g ai/ha) of 70%, a pest or weed control at 250 g/ha ([2]; 250 g ai/ha) of 95% and a pest or weed control at 31 g/ha ([3]; 31 g ai/ha) of 5%. It also gave a pest or weed control at 62 g/ha ([3]; 62 g ai/ha) of 10%, a pest or weed control at 125 g/ha ([3]; 125 g ai/ha) of 10% and a pest or weed control at 250 g/ha ([3]; 250 g ai/ha) of 10%. For the same molecule, the pest or weed control at 31 g/ha ([4]; 31 g ai/ha) was 80%, the pest or weed control at 62 g/ha ([4]; 62 g ai/ha) was 90% and the pest or weed control at 125 g/ha ([4]; 125 g ai/ha) was 90%. It also gave a pest or weed control at 250 g/ha ([4]; 250 g ai/ha) of 98%, a pest or weed control at 31 g/ha ([5]; 31 g ai/ha) of 75% and a pest or weed control at 62 g/ha ([5]; 62 g ai/ha) of 80%. For the same molecule, the pest or weed control at 125 g/ha ([5]; 125 g ai/ha) was 90%, the pest or weed control at 250 g/ha ([5]; 250 g ai/ha) was 98% and the pest or weed control at 31 g/ha ([6]; 31 g ai/ha) was 85%. For the same molecule, the pest or weed control at 62 g/ha ([6]; 62 g ai/ha) was 90%, the pest or weed control at 125 g/ha ([6]; 125 g ai/ha) was 90% and the pest or weed control at 250 g/ha ([6]; 250 g ai/ha) was 95%. For the same molecule, the pest or weed control at 31 g/ha ([7]; 31 g ai/ha) was 0%, the pest or weed control at 62 g/ha ([7]; 62 g ai/ha) was 5% and the pest or weed control at 125 g/ha ([7]; 125 g ai/ha) was 10%. It also gave a pest or weed control at 250 g/ha ([7]; 250 g ai/ha) of 10%.
